{
  "source": "patent US20090053697A1",
  "about": "“Pharmacological Applications of Mitochondrial DNA Assays” (priority 2001, published 2009)",
  "experiment": "Random venous lactic acid measurement",
  "assay_type": "in vivo, human",
  "settings": "for months after resuming therapy; normal range 0.5-2.1 mmol/L",
  "text": "Venous specimens for lactic acid determination were collected in sodium fluoride/potassium oxalate tubes, with normal tourniquet and no specific patient instruction other than the avoidance of first clenching or hand pumping. […]",
  "data": [
    {"smiles": "Cc1cn([C@H]2C[C@H](N=[N+]=[N-])[C@@H](CO)O2)c(=O)[nH]c1=O", "note": "[zidovudine]", "values": [
      {"measurement": "venous lactate levels", "value": "remained within the normal range"}
    ]}
  ]
}
